# Source: patent US8846933B2, “N-link hydroxamic acid derivatives useful as antibacterial agents” (Pfizer Inc., priority 2009, dated 2014)
# Key:
# [1] = test system: Escherichia coli EC-1: VOGEL, mouse virulent; test: MIC determination (CLSI), strain EC-1; type: cell-based; conditions: strain EC-1; unit assumed
# In short: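 The mouse-virulent VOGEL isolate of E. coli, EC-1, served as test organism. Minimum inhibitory concentration was measured by CLSI dilution methodology (M7-A7; M100-S18 standards).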
# [2] = test system: Pseudomonas aeruginosa UI-18: Wild-type (PA-7); test: MIC determination (CLSI), strain PA-7; type: cell-based; conditions: strain PA-7; unit assumed
# In short: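 MIC determined by broth dilution per CLSI M7-A7 guidelines with M100-S18 interpretive standards. Test organism: wild-type Pseudomonas aeruginosa UI-18, designated PA-7.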
compound,measurement,setting,value
"CC(CCn1ccc(-c2ccc(Br)c(F)c2)cc1=O)(C(=O)NO)S(C)(=O)=O (stereo not shown) [Example 282, 4-[4-(4-bromo-3-fluorophenyl)-2-oxopyridin-1(2H)-yl]-N-hydroxy-2-methyl-2-(methylsulfonyl)butanamide]",EC-1 (MIC),[1],0.5 µg/mL
same,PA-7 (MIC),[2],1 µg/mL
"CC(CCn1ccc(-c2ccc(Br)cc2F)cc1=O)(C(=O)NO)S(C)(=O)=O (stereo not shown) [Example 283, 4-[4-(4-bromo-2-fluorophenyl)-2-oxopyridin-1(2H)-yl]-N-hydroxy-2-methyl-2-(methylsulfonyl)butanamide]",EC-1 (MIC),[1],0.25 µg/mL
same,PA-7 (MIC),[2],1 µg/mL
"Cc1cn(CCC(C)(C(=O)NO)S(C)(=O)=O)c(=O)cc1-c1ccccc1 (stereo not shown) [Example 284, N-hydroxy-2-methyl-4-(5-methyl-2-oxo-4-phenylpyridin-1(2H)-yl)-2-(methylsulfonyl)butanamide]",EC-1 (MIC),[1],32 µg/mL
same,PA-7 (MIC),[2],64 µg/mL
"COc1ccc(-c2ccn(CC[C@](C)(C(=O)NO)S(C)(=O)=O)c(=O)c2)cn1 [Example 285, (2R)-N-hydroxy-4-(6-methoxy-2′-oxo-3,4′-bipyridin-1′(2′H)-yl)-2-methyl-2-(methylsulfonyl)butanamide]",EC-1 (MIC),[1],4 µg/mL
same,PA-7 (MIC),[2],4 µg/mL
Cc1cc(-c2cc(CO)no2)ccc1-c1ccn(CCC(C)(C(=O)NO)S(C)(=O)=O)c(=O)c1 (stereo not shown) [Example 286],EC-1 (MIC),[1],16 µg/mL
same,PA-7 (MIC),[2],16 µg/mL
"CC(CCn1ccc(-c2ccc(Oc3cccnc3)cc2)cc1=O)(C(=O)NO)S(C)(=O)=O (stereo not shown) [Example 287, N-hydroxy-2-methyl-2-(methylsulfonyl)-4-{2-oxo-4-[4-(pyridin-3-yloxy)phenyl]pyridin-1(2H)-yl}butanamide]",EC-1 (MIC),[1],0.5 µg/mL
same,PA-7 (MIC),[2],4 µg/mL
"COc1ccc2ccc(-c3ccn(CCC(C)(C(=O)NO)S(C)(=O)=O)c(=O)c3)cc2c1 (stereo not shown) [Example 288, N-hydroxy-4-[4-(7-methoxy-2-naphthyl)-2-oxopyridin-1(2H)-yl]-2-methyl-2-(methylsulfonyl)butanamide]",EC-1 (MIC),[1],0.125 µg/mL
same,PA-7 (MIC),[2],4 µg/mL
"Cc1cc(OCCCn2cncn2)ccc1-c1ccn(CCC(C)(C(=O)NO)S(C)(=O)=O)c(=O)c1 (stereo not shown) [Example 289, N-hydroxy-2-methyl-2-(methylsulfonyl)-4-[4-{2-methyl-4-[3-(1H-1,2,4-triazol-1-yl)propoxy]phenyl}-2-oxopyridin-1(2H)-yl]butanamide]",EC-1 (MIC),[1],32 µg/mL
same,PA-7 (MIC),[2],32 µg/mL
"CC(CCn1ccc(-c2ccc(OCCCn3cncn3)c(Cl)c2)cc1=O)(C(=O)NO)S(C)(=O)=O (stereo not shown) [Example 290, 4-[4-{3-chloro-4-[3-(1H-1,2,4-triazol-1-yl)propoxy]phenyl}-2-oxopyridin-1(2H)-yl]-N-hydroxy-2-methyl-2-(methylsulfonyl)butanamide]",EC-1 (MIC),[1],16 µg/mL
same,PA-7 (MIC),[2],16 µg/mL
"CC(CCn1ccc(-c2ccc(OCCCn3cncn3)cc2Cl)cc1=O)(C(=O)NO)S(C)(=O)=O (stereo not shown) [Example 291, 4-[4-{2-chloro-4-[3-(1H-1,2,4-triazol-1-yl)propoxy]phenyl}-2-oxopyridin-1(2H)-yl]-N-hydroxy-2-methyl-2-(methylsulfonyl)butanamide]",EC-1 (MIC),[1],16 µg/mL
same,PA-7 (MIC),[2],16 µg/mL
"CC(CCn1ccc(-c2ccc(OCCCn3cncn3)c(Cl)c2Cl)cc1=O)(C(=O)NO)S(C)(=O)=O (stereo not shown) [Example 292, 4-[4-{2,3-dichloro-4-[3-(1H-1,2,4-triazol-1-yl)propoxy]phenyl}-2-oxopyridin-1(2H)-yl]-N-hydroxy-2-methyl-2-(methylsulfonyl)butanamide]",EC-1 (MIC),[1],8 µg/mL
same,PA-7 (MIC),[2],16 µg/mL
"Cc1cc(-c2ccn(CCC(C)(C(=O)NO)S(C)(=O)=O)c(=O)c2)ccc1OCCCn1cncn1 (stereo not shown) [Example 293, N-hydroxy-2-methyl-2-(methylsulfonyl)-4-[4-{3-methyl-4-[3-(1H-1,2,4-triazol-1-yl)propoxy]phenyl}-2-oxopyridin-1(2H)-yl]butanamide]",EC-1 (MIC),[1],4 µg/mL
same,PA-7 (MIC),[2],16 µg/mL
CCCC(CCn1ccc(-c2ccccc2)cc1=O)(C(=O)NO)S(C)(=O)=O (stereo not shown) [Example 294],EC-1 (MIC),[1],> 64 µg/mL
same,PA-7 (MIC),[2],> 64 µg/mL
"CC(CCn1ccc(-c2ccc(-c3cccnc3)cc2F)cc1=O)(C(=O)NO)S(C)(=O)=O (stereo not shown) [Example 295, 4-[4-(2-fluoro-4-pyridin-3-ylphenyl)-2-oxopyridin-1(2H)-yl]-N-hydroxy-2-methyl-2-(methylsulfonyl)butanamide]",EC-1 (MIC),[1],1 µg/mL
same,PA-7 (MIC),[2],8 µg/mL
"CC(CCn1ccc(-c2c[nH]c3ccccc23)cc1=O)(C(=O)NO)S(C)(=O)=O (stereo not shown) [Example 296, N-hydroxy-4-[4-(1H-indol-3-yl)-2-oxopyridin-1(2H)-yl]-2-methyl-2-(methylsulfonyl)butanamide]",EC-1 (MIC),[1],64 µg/mL
same,PA-7 (MIC),[2],64 µg/mL
"CC(CCn1ccc(-c2ccc(-c3cccnc3)c(F)c2)cc1=O)(C(=O)NO)S(C)(=O)=O (stereo not shown) [Example 297, 4-[4-(3-fluoro-4-pyridin-3-ylphenyl)-2-oxopyridin-1(2H)-yl]-N-hydroxy-2-methyl-2-(methylsulfonyl)butanamide]",EC-1 (MIC),[1],1 µg/mL
same,PA-7 (MIC),[2],2 µg/mL
"CC(CCn1ccc(-c2ccc(-c3ccncc3)c(F)c2)cc1=O)(C(=O)NO)S(C)(=O)=O (stereo not shown) [Example 298, 4-[4-(3-fluoro-4-pyridin-4-ylphenyl)-2-oxopyridin-1(2H)-yl]-N-hydroxy-2-methyl-2-(methylsulfonyl)butanamide]",EC-1 (MIC),[1],0.5 µg/mL
same,PA-7 (MIC),[2],4 µg/mL
"CC(CCn1ccc(-c2ccc3ccc(O)cc3c2)cc1=O)(C(=O)NO)S(C)(=O)=O (stereo not shown) [Example 299, N-hydroxy-4-[4-(7-hydroxy-2-naphthyl)-2-oxopyridin-1(2H)-yl]-2-methyl-2-(methylsulfonyl)butanamide]",EC-1 (MIC),[1],1 µg/mL
same,PA-7 (MIC),[2],4 µg/mL
"Cc1ccc2cc(-c3ccn(CCC(C)(C(=O)NO)S(C)(=O)=O)c(=O)c3)ccc2n1 (stereo not shown) [Example 300, N-hydroxy-2-methyl-4-[4-(2-methylquinolin-6-yl)-2-oxopyridin-1(2H)-yl]-2-(methylsulfonyl)butanamide]",EC-1 (MIC),[1],4 µg/mL
same,PA-7 (MIC),[2],8 µg/mL
"Cc1cnc2ccc(-c3ccn(CCC(C)(C(=O)NO)S(C)(=O)=O)c(=O)c3)cc2c1 (stereo not shown) [Example 301, N-hydroxy-2-methyl-4-[4-(3-methylquinolin-6-yl)-2-oxopyridin-1(2H)-yl]-2-(methylsulfonyl)butanamide]",EC-1 (MIC),[1],4 µg/mL
same,PA-7 (MIC),[2],16 µg/mL
"Cc1ccnc2ccc(-c3ccn(CCC(C)(C(=O)NO)S(C)(=O)=O)c(=O)c3)cc12 (stereo not shown) [Example 302, N-hydroxy-2-methyl-4-[4-(4-methylquinolin-6-yl)-2-oxopyridin-1(2H)-yl]-2-(methylsulfonyl)butanamide]",EC-1 (MIC),[1],64 µg/mL
same,PA-7 (MIC),[2],16 µg/mL
"C[C@@](CCn1ccc(-c2ccc(OCCN3CCC(O)CC3)c(Cl)c2Cl)cc1=O)(C(=O)NO)S(C)(=O)=O [Example 303, (2R)-4-[4-{2,3-dichloro-4-[2-(4-hydroxypiperidin-1-yl)ethoxy]phenyl}-2-oxopyridin-1(2H)-yl]-N-hydroxy-2-methyl-2-(methylsulfonyl)butanamide]",EC-1 (MIC),[1],32 µg/mL
same,PA-7 (MIC),[2],16 µg/mL
"C[C@@](CCn1ccc(-c2ccc(OCCN3CCOCC3)c(Cl)c2Cl)cc1=O)(C(=O)NO)S(C)(=O)=O [Example 304, (2R)-4-{4-[2,3-dichloro-4-(2-morpholin-4-ylethoxy)phenyl]-2-oxopyridin-1(2H)-yl}-N-hydroxy-2-methyl-2-(methylsulfonyl)butanamide]",EC-1 (MIC),[1],4 µg/mL
same,PA-7 (MIC),[2],16 µg/mL
